Measured values reported in patent US20060019932A1, “Treatment of rheumatoid arthritis by inhibition of pde4” (priority 2002, published 2006).
pIC50: −log10 of the molar value. Where two headings read alike, the source gives them in different places.

What was measured:
[1] = system: collagen-induced arthritis in DBA mice; assay: Collagen-induced arthritis in DBA mice, cumulative score; assay type: in vivo; details: FIG. 1, score against days dosed, comparable to indomethacin
Text: FIG. 1 is a graphical plot of the cumulative score in collagen-induced arthritis in DBA mice plotted against days dosed for vehicle, Roflumilast, Indomethacin, and Example 1.

[2] = biological target: T1, human recombinant phosphodiesterase IVa (met-248) (Homo sapiens, UniProt P27815); assay: SPA based PDE activity assay; assay type: biochemical
T1 construct: human recombinant phosphodiesterase IVa (met-248); GST; made in house; host or cells: baculovirus/Sf-9
Protocol: Compounds which inhibit the hydrolysis of cAMP to AMP by the type-IV cAMP-specific phosphodiesterases were screened in a 96-well plate format as follows:
In a 96 well-plate at 30° C. the test compound was added (dissolved in 2 μL DMSO), 188 μL of substrate buffer containing [2,8-^3H] adenosine 3′,5′-cyclic phosphate (cAMP, 100 nM to 50 μM), 10 mM MgCl2, 1 mM EDTA, 50 mM Tris, pH 7.5. The reaction was initiated by the addition of human recombinant PDE4 (the amount was controlled so that ˜10% product was formed in 10 min.). The reaction was stopped after 10 min. by the addition of 1 mg of PDE-SPA beads (Amersham Pharmacia Biotech, Inc., Piscataway, N.J.). The product AMP generated was quantified on a Wallac Microbeta® 96-well plate counter (EG&G Wallac Co., Gaithersburg, Md.). The signal in the absence of enzyme was defined as the background. 100% activity was defined as the signal detected in the presence of enzyme and DMSO with the background subtracted. Percentage of inhibition was calculated accordingly. IC50 value was approximated with a non-linear regression fit using the standard 4-parameter/multiple binding sites equation from a ten point titration.

IFNγ = assay: Inhibition of LPS or Con A stimulated human whole blood: IFNγ; assay type: cell-based; details: read-out: Inhibition of LPS or Con A stimulate human whole blood, IFNγ
Text: (§1) Rheumatoid arthritis (RA) is a systemic autoimmune disease resulting in progressive joint destruction and associated pain. Three major contributors to its pathology are joint inflammation, abnormal cellular and humoral responses, and synovial hyperplasia. T-lymphocytes (T-cells) and monocytes are the major cell types recovered from the synovial tissue of RA patients and experimental evidence confirms that pro-inflammatory cytokines produced by these cells are the major contributors to joint pathogenesis. The inventors have analyzed human whole blood for the production of various cytokines including Th1 and Th2 cytokines following stimulation with lipoplysaccharide (LPS) and Concanavalin A (ConA) in the presence or absence of PDE4 inhibitors. […] TNF-α sequestrants alone have shown clinical efficacy in RA. Thus, if sufficient levels of inhibition are achieved, PDE4 inhibitor-mediated TNF-α suppression would have efficacy in RA.
(§2) Inhibition of various Th1 and monocyte derived cytokines which may play a role in human rheumatoid arthritis.

IL-2 = assay: Inhibition of LPS or Con A stimulated human whole blood: IL-2; assay type: cell-based; details: read-out: Inhibition of LPS or Con A stimulate human whole blood, IL-2
Text: as §1, §2

TNF-α = assay: Inhibition of LPS or Con A stimulated human whole blood: TNF-α; assay type: cell-based; details: read-out: Inhibition of LPS or Con A stimulate human whole blood, TNF-α
Text: as §1
Whole blood provides a protein and cell-rich milieu appropriate for the study of biochemical efficacy of anti-inflammatory compounds such as PDE4-selective inhibitors. […] Upon stimulation with LPS, activated monocytes express and secrete TNF-α up to 8 hours and plasma levels remain stable for 24 hours. […]

IL-12 = assay: Inhibition of LPS or Con A stimulated human whole blood: IL-12; assay type: cell-based; details: read-out: Inhibition of LPS or Con A stimulate human whole blood, IL-12
Text: as §1, §2

GM-CSF = assay: Inhibition of LPS or Con A stimulated human whole blood: GM-CSF; assay type: cell-based; details: read-out: Inhibition of LPS or Con A stimulate human whole blood, GM-CSF
Text: as §1, §2

T1 sequence (P27815 248-886): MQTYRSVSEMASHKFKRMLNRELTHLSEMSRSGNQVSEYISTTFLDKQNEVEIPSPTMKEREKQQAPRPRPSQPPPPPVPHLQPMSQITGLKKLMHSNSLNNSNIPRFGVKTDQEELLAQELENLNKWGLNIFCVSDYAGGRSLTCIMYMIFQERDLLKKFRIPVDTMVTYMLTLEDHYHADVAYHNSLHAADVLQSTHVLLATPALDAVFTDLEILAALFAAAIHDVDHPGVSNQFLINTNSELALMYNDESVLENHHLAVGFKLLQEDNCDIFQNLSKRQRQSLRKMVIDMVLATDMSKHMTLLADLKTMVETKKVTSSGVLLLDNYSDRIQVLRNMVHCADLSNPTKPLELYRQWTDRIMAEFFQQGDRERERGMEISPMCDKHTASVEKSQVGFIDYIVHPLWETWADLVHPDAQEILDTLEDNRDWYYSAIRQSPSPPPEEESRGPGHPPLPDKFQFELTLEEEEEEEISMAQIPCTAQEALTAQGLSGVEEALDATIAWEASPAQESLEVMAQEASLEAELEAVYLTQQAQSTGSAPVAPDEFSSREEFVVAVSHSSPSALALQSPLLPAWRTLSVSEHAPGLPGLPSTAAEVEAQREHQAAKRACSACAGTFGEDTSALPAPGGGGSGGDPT

`CC(C)NC(=O)/C(=C/c1cccc(-c2cc(C(C)(C)C#N)cc3cccnc23)c1)c1ccc(S(C)(=O)=O)cc1` [Example 1] was tested, and the “cumulative score in collagen-induced arthritis” value [1] was “low cumulative scores” and the pIC50 ([2]; 100 nM cAMP, purified GST fusion protein of human recombinant PDE IVa (met-248), baculovirus/Sf-9, read-out: IC50) was 9.12.

`Cc1c[n+]([O-])ccc1CC(c1ccc(C(O)(C(F)(F)F)C(F)(F)F)cc1)c1ccc(OC(F)F)c(OC(F)F)c1` (stereo not drawn) [Example 2] showed a pIC50 (IFNγ) of 7.30, a pIC50 (IL-2) of 6.52 and a pIC50 (TNF-α) of 7.30. For the same molecule, the pIC50 [2] was 8.88, the pIC50 (IL-12) was 6.89 and the pIC50 (GM-CSF) was 7.15.

In the case of `O=C(Nc1c(Cl)cncc1Cl)c1ccc(OC(F)F)c(OCC2CC2)c1` [Roflumilast, N-(3,5-dichloropyrid-4-yl)-3-cyclopropylmethoxy-4-difluoromethoxybenzamide, reference compound], the “cumulative score in collagen-induced arthritis” value [1] was “low cumulative scores”.
